system: Human mast cells (CHMC); test: LD Tryptase release assay in CHMC (mast cell activation induced by FcγR cross-linking); format: cell-based; conditions: Homo sapiens, Mast cell, anti-IgG stimulation, activity of tryptase released upon degranulation
In short: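 Mast cells derived from CD38-negative progenitors were preincubated 1 h at 37 °C with compound in HEPES-buffered saline (pH 7.4, 0.1% BSA, compound diluted in buffer with 2% MeOH/1% DMSO). Cells were then stimulated 60 min with anti-human IgG (final 1 μg/mL). Released tryptase was measured on Z-Ala-Lys-Arg-AMC (30 min, room temperature, 355/460 nm) to give the IC50.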

Row | IC50 [nM] | SMILES
1 | 100 to 500 | CN(C[C@@H]1CCCO1)c1ccc(Nc2ncc(F)c(Nc3ccc4c(n3)NC(=O)C(C)(C)O4)n2)cn1 [Compound 109]
2 | 100 to 500 | CN(C[C@@H]1CCCO1)c1ccc(Nc2ncc(F)c(Nc3ccc4c(n3)NC(=O)CO4)n2)cn1 [Compound 108, N4-(3,4-dihydro-3-oxo-2H-pyrido[3,2-b][1,4]oxazin-6-yl)-5-fluoro-N2-[6-(((S)-methyl(tetrahydrofuran-2-yl)methyl)amino)pyridin-3-yl]-2,4-pyrimidinediamine]

Second part, the compound before the results:

Row | SMILES | IC50 [nM]
3 | Cc1cc(Nc2ncc(F)c(Nc3ccc4c(n3)NC(=O)CO4)n2)cnc1N1CCOC(C)(C)C1 [Compound 12, N4-(3,4-dihydro-3-oxo-2H-pyrido[3,2-b][1,4]oxazin-6-yl)-5-fluoro-N2-[5-methyl-6-(2,2-dimethylmorpholino)pyridin-3-yl]-2,4-pyrimidinediamine] | < 100
4 | O=C1COc2ccc(Nc3nc(Nc4ccc(N5CCCCC5)cc4)ncc3F)nc2N1 [Compound 83, N4-(3,4-dihydro-3-oxo-2H-pyrido[3,2-b][1,4]oxazin-6-yl)-5-fluoro-N2-[4-(piperidin-1-yl)phenyl]-2,4-pyrimidinediamine] | 100 to 500
5 | COc1cc(Nc2ncc(F)c(Nc3ccc4c(n3)NC(=O)CO4)n2)ccc1C1CCOCC1 [Compound 49, N4-(3,4-dihydro-3-oxo-2H-pyrido[3,2-b][1,4]oxazin-6-yl)-5-fluoro-N2-[-3-methoxy-4-tetrahydropyranophenyl]-2,4-pyrimidinediamine] | < 100
6 | O=C1COc2ccc(Nc3nc(Nc4ccc(N5CCCOCC5)cc4)ncc3F)nc2N1 [Compound 44, N4-(3,4-dihydro-3-oxo-2H-pyrido[3,2-b][1,4]oxazin-6-yl)-5-fluoro-N2-[4-homomorpholinophenyl]-2,4-pyrimidinediamine] | 100 to 500
7 | CC(C)OC1CCN(c2ccc(Nc3ncc(F)c(Nc4ccc5c(n4)NC(=O)C(C)(C)O5)n3)cc2)CC1 [Compound 86, N4-(2,2-dimethyl-3,4-dihydro-3-oxo-2H-pyrido[3,2-b][1,4]oxazin-6-yl)-5-fluoro-N2-[4-(4-isopropoxypiperidin-1-yl)phenyl]-2,4-pyrimidinediamine] | 1000 to 100000

Source: US8618095B2 (Rigel Pharmaceuticals, Inc., priority 2010, dated 2013)
